Measurements: patent US8858914B2 (Endocyte, Inc., priority 2002, dated 2014)

Assays:
[1] = test system: M109 and L1210 tumors; assay: whole-tissue fluorescence imaging of tumors vs adjacent normal tissue after iv injection; type: in vivo, mouse; conditions: M109 (Balb/c) and L1210 (DBA) tumors, 2 h after iv injection, argon laser 488 nm
Method: Whole-tissue fluorescent imaging is performed using the imaging system 110 shown in FIG. 2 including an argon laser 12 (Spectra-Physics, Mountain View, Calif.) operating at 488 nm with a total laser power of 200 mW reaching the 2 cm sample field of view 114. Fluorescence is detected by a colored CCD camera 116 such as a JAI CV-53200N manufactured by Edmund Industrial Optics, Barrington, N.J. with a sensing area of 768×494 pixels and a pixel size of […]. An f/5.6 152-457 mm 10× CCD zoom lens 118, also produced by Edmund Industrial Optics, Barrington, N.J., is used to collect fluorescence from the 2.0 cm×2.0 cm field of view 114. A band pass filter 120 with […] 80% T at 515-585 nm (Inter, Inc., Socorro, N.M.) is placed between the lens 118 and the CCD Camera 116 in order to reject laser light 20 and suppress tissue auto-fluorescence outside the fluorescein fluorescence band. The images are digitally acquired using SNAPPY software v. 4.0 manufactured by Play, Inc., Sacramento, Calif.
The light 20 of laser 12 is aimed via a plurality of mirrors 26 such that the light 20 passes through a diffusing lens 124 to illuminate the field of view 114 as shown in FIG. 2. […]
In fact, the differences in fluorescence intensity were readily apparent to the naked eye without the assistance of optical equipment as shown in the upper pictures of FIGS. 5a-c. […]

[2] = test system: M109 tumor nodules; assay: imaging of metastatic tumor nodules of M109 cell origin (ip or iv inoculation); type: in vivo, mouse
Description: In order to test the ability of folate-fluorescein to facilitate detection of microscopic tumor nodules, metastatic tumors of M109 cell origin were induced by inoculation of cells either into the peritoneal cavity (ip) or femoral vein (iv) of the syngeneic mice. After allowing sufficient time for tumor growth, tumor loci were again imaged by intravenous administration of folate-fluorescein followed by laser excitation.

[3] = test system: arthritic joints (folate receptor expressing macrophages); conditions: rat paws
Description: Targeting a photosensitizer to arthritic joints allow phototherapy to be applied to the arthritic joint while preventing toxicity to other tissues. […] One potential application of arthritis imaging is in the area of sport animal medicine. Race animals, such as dogs or horses, that have arthritis, could be diagnosed in an easy, inexpensive, and nonradioactive manner by using fluorescent imaging agents.

[4] = test system: folate receptor-expressing tumor tissue
[5] = test system: L1210 tumor nodules; assay: imaging of metastatic L1210 lesions after iv inoculation; type: in vivo, mouse
Description: To further explore the ability of folate-fluorescein to image small metastatic lesions, L1210 cells were also inoculated intravenously into syngeneic mice and the various anatomical regions were again imaged as above. Since L1210 cells are lymphocytic in origin and relatively small in size, they are capable of forming tumor nodules throughout the body after iv injection, rather than becoming entrapped primarily in the lung capillary network. […] Further, the animal's spleen was almost entirely filled with minute tumor loci (FIG. 9a) and was consequently enlarged to roughly twice its normal size. Tumor nodules were also found in muscle tissue near the shoulder (FIG. 9b) and in the brain, spinal cord, and along the pleura.

folate-γ-fluorescein [folate-fluorescein]
fluorescence of tumors compared with adjacent normal tissues [1]: significantly more fluorescent than adjacent normal tissues | fluorescence of tumor metastases compared to adjacent nonmalignant tissue ([2]; intravenously inoculated mice, lungs): all tumor metastases fluoresced intensely | size of metastatic tumor nodules readily observable ([2]; lungs of intravenously inoculated mice, iv conjugate, laser excitation): smaller than 0.5 mm | contrast between arthritic and non-arthritic tissues [3]: discernable contrast | fluorescence intensity of liver and muscle tissues, injected vs noninjected mice ([4]; liver and muscle tissues not expressing the folate receptor): no difference in fluorescence intensity | fluorescence of tumor tissue from injected mice relative to autofluorescence of noninjected controls ([4]; tumor tissue, 2 h after injection of 8.7 μg, laser excitation): approximately fivefold | fluorescence of L1210 tumor nodules throughout the body ([5]; most tissues of the body, laser illumination): no nodules were identified that did not fluoresce | detection of microscopic L1210 nodules in liver under laser illumination ([5]; under and top surface of the liver): clearly revealed under laser illumination
